In assay [1] the test system is platinum-resistant ex vivo spheroid cultures of patients DF3266, DF3288, DF3291. Kind of assay: Drug sensitivity testing with the growth in low attachment (GILA) assay. The conditions noted are these: for Sensitivity of spheroid cultures: all spheroid cultures, similar dose range, cisplatin excepted in DF3266 and DF3288. It is filed as cell-based. Here is the method: (§1) FIG. 6A-FIG. 6G are a series of graphs and images depicting the impact of JAK/STAT-inhibition on spheroid formation, invasion and killing ex vivo and in vitro. FIG. 6A a histogram (FIG. 11B), showing drug screening with 14 compounds (at 1 μM) inhibiting the JAK/STAT pathway in OVACR4. Relative viability compared to DMSO control measured by CTG. […] The same library was screened in 2D-cultures of OVACR4 (FIG. 11A), and 2D-cultures of OVACR8 (FIG. 11C) and 3D-cultures of OVACR8 (FIG. 11D). FIG. 6B is a series of plots showing drug sensitivity testing using the GILA assay in platinum-resistant ex vivo spheroid cultures of patients DF3291 and DF3266, The X-axis indicates the log μM concentration of drugs indicated in the legend, Y-axis indicates the percentage of luminescence signal as indicator for viability relatively to DMSO treated cells. In both patients, half maximal effective concentration (EC50) were ˜100 nM and ˜10 nM, respectively, while other drugs routinely used for the treatment of (platinum-resistant) ovarian cancer had EC50>10 μM. FIG. 6C is a series of images of microscopic analysis of spheroids with different drug treatments to highlight the morphologic changes during therapy with drugs listed. Inhibition of JAK/STAT pathway disrupts ex vivo spheroid cultures. […] The X-axis indicates established ovarian cancer cell line ID. Y-axis indicates the relative number of formed spheroids when treated with either JSI-124 or carboplatin compared to untreated parental controls. Error bars indicate the standard deviation from the mean number of spheroids. […] JAK/STAT inhibition prevents spheroid formation. […] The Y-axis indicates the clearance ability (using arbitrary units). 20 spheroids clusters were analyzed for each iteration. Data is shown as mean (horizontal bar), interquartile range (box), and minimum and maximum (whiskers). Statistical analysis was performed using 1-way analysis of variance (ANOVA) and post hoc Tukey-Kramer **P<0.05. […] FIG. 6G is a histogram showing the inhibition of the JAK/STAT pathway.
Single-cell RNA-sequencing was performed on these platinum-resistant patient samples, using the growth in low attachment (GILA) assay (Rotem et al., 2015 Proc. Natl. Acad. Sci. U.S.A, 112:5708-5713; B. Izar and A. Rotem, 2016 Curr. Protoc. Mol. Biol., 116:28.8.1-28.8.12). […] In contrast, all spheroid cultures were resistant to carboplatin, cisplatin, olaparib and paclitaxel at a similar dose range, with the exception of cisplatin with an EC50 of ˜10 μM in patients DF3266 and DF3288.

Assay [2] concerns established ovarian cancer cell lines (OVCAR4, OVCAR8, OVASHO, TYKNU, Kuramachi). Kind of assay: Spheroid formation in low adherent surface culture. It is filed as cell-based. The conditions noted are these: same treatment doses as JSI-124. The method, then: as §1, with “pathway. […]” for “pathway.”
The subject of assay [3] is PDX models DF20, DF68, DF101. As to the kind of experiment: Carboplatin treatment of ovarian cancer PDX models, tumor volume and BLI. It counts as in vivo, mice. The settings on record: followed by subsequent tumor outgrowth. The method, then:
FIG. 4A-FIG. 4E are a series of graphs depicting comparisons of expression profiles across patient-derived xenograft (PDX) models before and after recurrence. […] FIG. 4A is a plot of tumor burden of PDX model DF20. PDX model DF20 response to carboplatin was assessed. Triangles indicate vehicle mice, squares indicate relapsed mice, and asterisks indicates MRD animals. MRD and relapsed tumors were treated with three cycles of carboplatin and harvested for single-cell RNA-sequencing at the last indicated time point in this graph. FIG. 4B is a heatmap showing the similarities and clustering of average expression profiles for each of the samples corresponding to three PDX models, with samples collected before treatments (vehicle), MRD and full relapse for each of the models. FIG. 4C is a plot of expression of highly-abundant transcripts in single-cells indicate disproportionally high expression of key nodes of the JAK/STAT pathway, including STAT2 and STAT3, and others.
Next, platinum-resistance was modeled using PDX-models. […] Single-cells were harvested for sequencing from untreated animals (vehicle) and the carboplatin-treated animals were monitored for tumor regression and relapse. […] Accordingly, gene sets were detected which were consistently altered across two or three samples of MRD (FIG. 4D) or relapse (FIG. 4E), and contribute to drug resistance or tumor relapse. […]

By EC50 is commonly meant the concentration that produces a half-maximal response.

For the compound `N.N.[Cl][Pt][Cl]` [cisplatin], in assay [1], the “Sensitivity of spheroid cultures” value is reported as “resistant”. The half-maximal effective concentration (EC50) in assay [1] (patients DF3266 and DF3288, read-out: EC50) is about 10 µM.

Take `N.N.O=C([O-])C1(C(=O)[O-])CCC1.[Pt+2]` [carboplatin]: in assay [2], the “Effect on spheroids formation” value is “modest to no effects”. Also, in assay [1], the “Sensitivity of spheroid cultures” value is recorded as “resistant”. Moreover, the “Tumor response (tumor volume, BLI signal)” value in assay [3] was “brisk response”. As to `O=C(c1cc(Cc2n[nH]c(=O)c3ccccc23)ccc1F)N1CCN(C(=O)C2CC2)CC1` [olaparib], the “Sensitivity of spheroid cultures” value in assay [1] is listed as “resistant”. In the case of `CC(=O)O[C@H]1C(=O)[C@@]2(C)[C@H]([C@H](OC(=O)c3ccccc3)[C@]3(O)C[C@H](OC(=O)[C@H](O)[C@@H](NC(=O)c4ccccc4)c4ccccc4)C(C)=C1C3(C)C)[C@]1(OC(C)=O)CO[C@@H]1C[C@@H]2O` [paclitaxel], the “Sensitivity of spheroid cultures” value in assay [1] was “resistant”.

The values above are taken from patent publication US11963966B2, “Compositions and methods for treating ovarian tumors” (Dana-Farber Cancer Institute, Inc., priority 2017, dated 2024).
